PubChem BioAssay AID1259407 (Chemical Carcinogenesis Research Information System (CCRIS), 2018)
The source made the active and inactive calls. The rule behind the calls is not given here.

Tested on: CCRIS mutagenicity, Ames/micronucleus/aberration tests
Test: CCRIS mutagenicity studies
[1] = Test System: AMES SALMONELLA TYPHIMURIUM, Strain/Indicator: TA98, Metabolic Activation: NONE, Method: STANDARD PLATE
[2] = Test System: AMES SALMONELLA TYPHIMURIUM, Strain/Indicator: TA100, Metabolic Activation: NONE, Method: STANDARD PLATE

Measured: mutagenic call

[O]=[Cd]
active: End Point: In vivo micronucleus, Test System: Peripheral blood lymphocytes, Species: Dog, Strain/Sex: Mongrel/Male, Female, Route: Oral active; positive in group 2
inactive: Test System: AMES SALMONELLA TYPHIMURIUM, Strain/Indicator: TA98, Metabolic Activation: HAMSTER, LIVER, S-9, AROCLOR 1254 (10%), Method: PREINCUBATION inactive; negative | Test System: AMES SALMONELLA TYPHIMURIUM, Strain/Indicator: TA98, Metabolic Activation: NONE, Method: PREINCUBATION inactive; negative | Test System: AMES SALMONELLA TYPHIMURIUM, Strain/Indicator: TA98, Metabolic Activation: RAT, LIVER, S-9, AROCLOR 1254 (10%), Method: PREINCUBATION inactive; negative | Test System: AMES SALMONELLA TYPHIMURIUM, Strain/Indicator: TA100, Metabolic Activation: HAMSTER, LIVER, S-9, AROCLOR 1254 (10%), Method: PREINCUBATION inactive; negative | Test System: AMES SALMONELLA TYPHIMURIUM, Strain/Indicator: TA100, Metabolic Activation: NONE, Method: PREINCUBATION inactive; negative | Test System: AMES SALMONELLA TYPHIMURIUM, Strain/Indicator: TA100, Metabolic Activation: RAT, LIVER, S-9, AROCLOR 1254 (10%), Method: PREINCUBATION inactive; negative | Test System: AMES SALMONELLA TYPHIMURIUM, Strain/Indicator: TA1535, Metabolic Activation: HAMSTER, LIVER, S-9, AROCLOR 1254 (10%), Method: PREINCUBATION inactive; negative | Test System: AMES SALMONELLA TYPHIMURIUM, Strain/Indicator: TA1535, Metabolic Activation: NONE, Method: PREINCUBATION inactive; negative | Test System: AMES SALMONELLA TYPHIMURIUM, Strain/Indicator: TA1535, Metabolic Activation: RAT, LIVER, S-9, AROCLOR 1254 (10%), Method: PREINCUBATION inactive; negative | Test System: AMES SALMONELLA TYPHIMURIUM, Strain/Indicator: TA1537, Metabolic Activation: HAMSTER, LIVER, S-9, AROCLOR 1254 (10%), Method: PREINCUBATION inactive; negative | Test System: AMES SALMONELLA TYPHIMURIUM, Strain/Indicator: TA1537, Metabolic Activation: NONE, Method: PREINCUBATION inactive; negative | Test System: AMES SALMONELLA TYPHIMURIUM, Strain/Indicator: TA1537, Metabolic Activation: RAT, LIVER, S-9, AROCLOR 1254 (10%), Method: PREINCUBATION inactive; negative

ONc1ccc(Cl)cc1
inactive: [1] inactive; negative | [2] inactive; negative | Test System: AMES SALMONELLA TYPHIMURIUM, Strain/Indicator: TA1535, Metabolic Activation: NONE, Method: STANDARD PLATE inactive; negative | Test System: E. COLI, Strain/Indicator: WP2 UVRA(P), Metabolic Activation: NONE, Method: STANDARD PLATE inactive; negative | Test System: E. COLI, Strain/Indicator: WP2 UVRA, Metabolic Activation: NONE, Method: FLUCTUATION TEST inactive; negative | Test System: E. COLI, Strain/Indicator: WP2 UVRA, Metabolic Activation: NONE, Method: STANDARD PLATE inactive; negative

COC(=O)c1cc2ccc3cccnc3c2[nH]1
inactive: [1] inactive; negative | Test System: E. COLI, Strain/Indicator: WP2 TM9, Metabolic Activation: NONE, Method: STANDARD PLATE inactive; negative

CN=C1C=CC(=C(c2ccc(N(C)C)cc2)c2ccc(N(C)C)cc2)C=C1
inactive: Test System: AMES SALMONELLA TYPHIMURIUM, Strain/Indicator: TA97, Metabolic Activation: NONE, Method: STANDARD PLATE inactive; negative | Test System: AMES SALMONELLA TYPHIMURIUM, Strain/Indicator: TA97, Metabolic Activation: RAT, LIVER, S-9, AROCLOR 1254, Method: STANDARD PLATE inactive; negative | [1] inactive; negative | Test System: AMES SALMONELLA TYPHIMURIUM, Strain/Indicator: TA98, Metabolic Activation: RAT, LIVER, S-9, AROCLOR 1254, Method: STANDARD PLATE inactive; negative | [2] inactive; negative | Test System: AMES SALMONELLA TYPHIMURIUM, Strain/Indicator: TA100, Metabolic Activation: RAT, LIVER, S-9, AROCLOR 1254, Method: STANDARD PLATE inactive; negative | Test System: AMES SALMONELLA TYPHIMURIUM, Strain/Indicator: TA104, Metabolic Activation: NONE, Method: STANDARD PLATE inactive; negative | Test System: AMES SALMONELLA TYPHIMURIUM, Strain/Indicator: TA104, Metabolic Activation: RAT, LIVER, S-9, AROCLOR 1254, Method: STANDARD PLATE inactive; negative
